# Test system: amphetamine-induced rats
# Conditions: Study 1, 2.5 mg/kg, compared to vehicle-amphetamine group
# Method: Locomotor activity of the rats was tested in open field arena.
smiles,measurement,setting,value
"COc1cc2c(cc1OC)[C@@H]1C[C@H](O)[C@@H](CC(C)C)CN1CC2 [(−)-α-DHTBZ, (2S, 3S, 11bS)-3-isobutyl-9,10-dimethoxy-1,3,4,6,7,11b-hexahydro-2H-pyrido[2,1,a]isoquinolin-2-ol]",stereotypic behaviour,,did not lead to lower locomotor activity or reduced stereotypic behaviour
same,locomotor activity (distance travelled),listed as (−)-α-isomer,"very little, if any, reduction"

# Source: patent US11844786B2 (ADEPTIO PHARMACEUTICALS LIMITED, priority 2017, dated 2023)
